Earlier results as cited in patent US20040258731A1, “Preparation approriate for cartilage tissue formation” (priority 2001, published 2004).

Legend:
articular cartilage [1] = tested on: articular cartilage
articular cartilage [2] = settings: experimental arthritis model animals, intraarticular administration

Substance	synovitis (articular cartilage [1]; in vivo)	arthritis-induced loss of proteoglycans in articular cartilage (articular cartilage [2])	chondrogenesis (articular cartilage [1]; intraarticularly administered)
TGF-β	marked synovitis	–	–
TGF-β1: an isoform of TGF-β (Transforming Growth Factor β)	–	suppresses arthritis-induced loss of proteoglycans in articular cartilage	promote chondrogenesis
